Assay results published in patent US10689354B2, “Aminoazole derivative” (Teijin Pharma Limited, priority 2015, dated 2020).

What was measured:
human androgen receptor = molecular target: T1, human androgen receptor (Homo sapiens, UniProt P10275); assay: Reporter assay of an androgen receptor responsive sequence (luciferase, transiently transfected HEK293 cells); format: cell-based; settings: 24 hours incubation, relative to activity of 100 nM DHT, read-out: AR transcriptive activity (pEC50) (converted)
T1 construct: expressed in transfected cells; host or cells: HEK293
T1 sequence (P10275 1-920): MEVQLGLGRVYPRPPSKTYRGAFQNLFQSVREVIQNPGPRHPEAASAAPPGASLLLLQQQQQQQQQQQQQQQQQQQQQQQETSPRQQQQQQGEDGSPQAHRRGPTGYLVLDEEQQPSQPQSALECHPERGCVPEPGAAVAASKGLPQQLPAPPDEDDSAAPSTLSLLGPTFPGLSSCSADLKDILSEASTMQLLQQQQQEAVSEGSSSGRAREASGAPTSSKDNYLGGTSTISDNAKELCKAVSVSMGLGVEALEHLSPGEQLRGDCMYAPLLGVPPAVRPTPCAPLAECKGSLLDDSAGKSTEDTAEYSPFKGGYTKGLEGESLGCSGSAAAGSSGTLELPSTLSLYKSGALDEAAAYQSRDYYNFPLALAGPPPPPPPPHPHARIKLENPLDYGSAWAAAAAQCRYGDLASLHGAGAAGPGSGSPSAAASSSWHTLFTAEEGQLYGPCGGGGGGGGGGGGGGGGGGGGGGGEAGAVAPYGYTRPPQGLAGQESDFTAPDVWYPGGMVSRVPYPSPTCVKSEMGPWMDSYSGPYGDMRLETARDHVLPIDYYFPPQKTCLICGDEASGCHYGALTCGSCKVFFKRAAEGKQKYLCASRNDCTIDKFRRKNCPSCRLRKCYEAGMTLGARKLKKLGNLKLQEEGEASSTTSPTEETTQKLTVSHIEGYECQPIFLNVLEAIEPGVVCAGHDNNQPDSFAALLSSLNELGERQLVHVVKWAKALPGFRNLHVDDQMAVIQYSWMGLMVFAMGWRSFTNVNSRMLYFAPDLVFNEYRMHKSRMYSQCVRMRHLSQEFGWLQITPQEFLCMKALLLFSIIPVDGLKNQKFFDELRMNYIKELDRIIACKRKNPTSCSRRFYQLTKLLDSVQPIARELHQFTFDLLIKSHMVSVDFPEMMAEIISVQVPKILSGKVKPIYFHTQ
Method in brief: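 HEK293 cells transiently transfected for 3 h with ARE-firefly luciferase, full-length human AR and TK-Renilla plasmids, then exposed to compound for 24 h at 37 °C in 5% charcoal-treated FBS/DMEM. Dual-Glo luminescence read; pEC50 from 4-parameter fit relative to 100 nM DHT.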

[1] = molecular target: T2, androgen receptor (AR-LBD) (Rattus norvegicus, UniProt P15207); assay: Evaluation of androgen receptor affinity (PolarScreen Androgen Receptor Competitor Assay Kit, Red; fluorescence polarization); settings: 22° C. for 5 hours, relative to binding rate of 1 μM DHT, read-out: AR affinity (pEC50) (converted)
T2 construct: 5 μL of 2×AR-LBD/Fluoromone AL Red Complex contained in the kit; purchased Invitrogen
T2 sequence (P15207 651-882 limits assumed): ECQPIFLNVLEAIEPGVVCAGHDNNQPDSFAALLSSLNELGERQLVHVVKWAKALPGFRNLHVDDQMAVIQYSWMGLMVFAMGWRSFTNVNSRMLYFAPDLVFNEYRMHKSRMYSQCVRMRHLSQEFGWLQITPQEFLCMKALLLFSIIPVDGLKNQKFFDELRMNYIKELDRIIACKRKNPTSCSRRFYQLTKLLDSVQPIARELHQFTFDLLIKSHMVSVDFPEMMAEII
Method in brief: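 pEC50 values reflect tracer displacement from AR-LBD (Fluoromone AL Red complex) measured by fluorescence polarization after 5 h at 22° C, normalized to 1 μM DHT and fitted with a 4-parameter model.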

SMILES	EC50 (human androgen receptor) [nM]	EC50 [1] [nM]
Cc1sc(N(CCC2CCCC2)Cc2ccccc2)nc1C(=O)NS(C)(=O)=O [Compound 683, 2-[benzyl(2-cyclopentylethyl)amino]-5-methyl-N-methylsulfonyl-thiazole-4-carboxamide]	> 10000	100
CS(=O)(=O)NC(=O)c1nc(N(Cc2ccc(C(F)(F)F)cc2)c2ccc(C#N)cc2)sc1Br [Example 251, 5-bromo-2-[4-cyano-N-[[4-(trifluoromethyl)phenyl]methyl]anilino]-N-methylsulfonyl-thiazole-4-carboxamide]	25.1	39.8
Cc1sc(N(Cc2csc3cccc(C)c23)c2ccc(C#N)cc2)nc1C(=O)NS(C)(=O)=O [Compound 464, 2-[4-cyano-N-[(4-methylbenzothiophen-3-yl)methyl]anilino]-5-methyl-N-methylsulfonyl-thiazole-4-carboxamide]	5010	63.1
Cc1sc(N(Cc2cc(F)cc(F)c2F)c2ccc(C#N)cc2)nc1C(=O)NS(C)(=O)=O [Compound 109, 2-[4-cyano-N-[(2,3,5-trifluorophenyl)methyl]anilino]-5-methyl-N-methylsulfonyl-thiazole-4-carboxamide]	200	100
Cc1sc(N(Cc2cccc(CO)c2)c2ccc(C#N)cc2)nc1C(=O)NS(C)(=O)=O [Compound 6, 2-[4-cyano-N-[[3-(hydroxymethyl)phenyl]methyl]anilino]-5-methyl-N-methylsulfonyl-thiazole-4-carboxamide]	316	200
Cc1sc(N(Cc2ncc(Cl)cc2Cl)c2ccc(C#N)cc2)nc1C(=O)NS(C)(=O)=O [Example 180, 2-[4-cyano-N-[(3,5-dichloro-2-pyridyl)methyl]anilino]-5-methyl-N-methylsulfonyl-thiazole-4-carboxamide]	501	251
Cc1oc(N(Cc2ccc(Br)cc2)c2ccc(C#N)cc2)nc1C(=O)NS(C)(=O)=O [Example 285, 2-[N-[(4-bromophenyl)methyl]-4-cyano-anilino]-5-methyl-N-methylsulfonyl-oxazole-4-carboxamide]	200	50.1
Cc1sc(N(CCc2ccsc2)Cc2ccccc2)nc1C(=O)NS(C)(=O)=O [Example 313, 2-[benzyl-[2-(3-thienyl)ethyl]amino]-5-methyl-N-methylsulfonyl-thiazole-4-carboxamide]	1000	158
CS(=O)(=O)NC(=O)c1nc(N(Cc2cc3ccccc3s2)c2ccc(C#N)cc2)sc1Br [Compound 609, 2-[N-(benzothiophen-2-ylmethyl)-4-cyano-anilino]-5-bromo-N-methylsulfonyl-thiazole-4-carboxamide]	39.8	31.6
Cc1sc(N(CC[Si](C)(C)C)c2ccc(C#N)cc2)nc1C(=O)NS(C)(=O)=O [Compound 476, 2-[4-cyano-N-(2-trimethylsilylethyl)anilino]-5-methyl-N-methylsulfonyl-thiazole-4-carboxamide]	> 10000	200
CCc1oc(N(Cc2ccc(Br)cn2)c2ccc(C#N)cc2)nc1C(=O)NS(C)(=O)=O [Compound 636, 2-[N-[(5-bromo-2-pyridyl)methyl]-4-cyano-anilino]-5-ethyl-N-methylsulfonyl-oxazole-4-carboxamide]	1580	398
Cc1sc(N(Cc2cc(F)cc3cccnc23)c2ccc(C#N)cc2)nc1C(=O)NS(C)(=O)=O [Example 174, 2-[4-cyano-N-[(6-fluoro-8-quinolyl)methyl]anilino]-5-methyl-N-methylsulfonyl-thiazole-4-carboxamide]	316	100
Cc1cc(CN(CCc2ccc(Cl)cc2)c2nc(C(=O)NS(C)(=O)=O)c(C)s2)no1 [Compound 508, 2-[2-(4-chlorophenyl)ethyl-[(5-methylisoxazol-3-yl)methyl]amino]-5-methyl-N-methylsulfonyl-thiazole-4-carboxamide]	5010	316
Cc1ccccc1CN(c1ccc(C#N)cc1)c1nc(C(=O)NS(C)(=O)=O)c(C)s1 [Compound 45, 2-[4-cyano-N-(o-tolylmethyl)anilino]-5-methyl-N-methylsulfonyl-thiazole-4-carboxamide]	501	158
Cc1sc(N(CCCC(C)C)c2ccc(C#N)cc2)nc1C(=O)NS(C)(=O)=O [Compound 438, 2-(4-cyano-N-isohexyl-anilino)-5-methyl-N-methylsulfonyl-thiazole-4-carboxamide]	398	25.1
COCCCS(=O)(=O)NC(=O)c1nc(N(CCc2ccc(C#N)cc2)Cc2ccc(F)cc2Cl)oc1C [Compound 558, 2-[(2-chloro-4-fluoro-phenyl)methyl-[2-(4-cyanophenyl)ethyl]amino]-N-(3-methoxypropylsulfonyl)-5-methyl-oxazole-4-carboxamide]	> 10000	63.1
CS(=O)(=O)NC(=O)c1nc(N(Cc2ccc(C(F)(F)F)cn2)c2ccc(C#N)cc2)oc1C1CC1 [Compound 649, 2-[4-cyano-N-[[5-(trifluoromethyl)-2-pyridyl]methyl]anilino]-5-cyclopropyl-N-methylsulfonyl-oxazole-4-carboxamide]	> 10000	631
Cc1sc(N(CCc2ccccc2Cl)c2ccc(C#N)cc2)nc1C(=O)NS(C)(=O)=O [Compound 140, 2-[N-[2-(2-chlorophenyl)ethyl]-4-cyano-anilino]-5-methyl-N-methylsulfonyl-thiazole-4-carboxamide]	794	100
Cc1sc(N(CCC2CCCC2)c2ccc(C#N)cc2)nc1C(=O)NS(C)(=O)=O [Compound 78, 2-[4-cyano-N-(2-cyclopentylethyl)anilino]-5-methyl-N-methylsulfonyl-thiazole-4-carboxamide]	158	25.1
Cc1sc(N(CCCOCc2ccccc2)c2ccc(C#N)cc2)nc1C(=O)NS(C)(=O)=O [Compound 359, 2-[N-(3-benzyloxypropyl)-4-cyano-anilino]-5-methyl-N-methylsulfonyl-thiazole-4-carboxamide]	> 10000	126
Cc1sc(N(CCc2ccc(Cl)cc2)Cc2ccc(OC(F)(F)F)cc2)nc1C(=O)NS(=O)(=O)C(F)(F)F [Compound 704, 2-[2-(4-chlorophenyl)ethyl-[[4-(trifluoromethoxy)phenyl]methyl]amino]-5-methyl-N-(trifluoromethylsulfonyl)thiazole-4-carboxamide]	> 10000	316
COCCCS(=O)(=O)NC(=O)c1nc(N(Cc2ccc(C(F)(F)F)c(C#N)c2)c2ccc(C#N)cc2)sc1C [Compound 534, 2-[4-cyano-N-[[3-cyano-4-(trifluoromethyl)phenyl]methyl]anilino]-N-(3-methoxypropylsulfonyl)-5-methyl-thiazole-4-carboxamide]	158	100
Cc1oc(N(Cc2cccc(Cl)c2)c2ccc(C#N)cc2)nc1C(=O)NS(C)(=O)=O [Compound 611, 2-[N-[(3-chlorophenyl)methyl]-4-cyano-anilino]-5-methyl-N-methylsulfonyl-oxazole-4-carboxamide]	2000	79.4
